Experimental data taken from PMC6451745, “Development and dosimetry of ^203Pb/^212Pb-labelled PSMA ligands: bringing “the lead” into PSMA-targeted alpha therapy?” (European Journal of Nuclear Medicine and Molecular Imaging, 2019).
Several values for one entry are separate records, joined by “and”; a condition that tells them apart may be missing. Equal values may be shown once.

How the values were obtained:
C4-2 cells = experiment: Determination of specific internalization ratio; type: cell-based
Description: In vitro and in vivo experiments were performed using the PSMA-positive C4-2 cell line, a subline of the LNCaP (lymph node carcinoma of the prostate) cell line (CRL-3314; American Type Culture Collection). C4-2 cells were cultivated in RPMI-1640 (PAN Biotech) supplemented with 10% fetal calf serum and stable glutamine (PAN Biotech). Cells were grown at 37 °C and incubated in humidified air equilibrated with 5% CO2.
For determination of the specific internalization ratio, 24-well plates were incubated for 20 min with 0.1% poly-L-lysine in PBS at room temperature and washed once with PBS. In the next step, 1 ml RPMI containing 1 × 10^5 C4-2 cells was added to each well and incubated overnight. The conditions during the experiment for each compound were: incubation at 37 °C or 4 °C with or without receptor blocking via 2-(phosphonomethyl)pentanedioic acid (2-PMPA; Axxora) at a final concentration of 500 μM. The cells were then incubated with 250 μl of a 30 nM solution of ^203Pb-labelled compound. The plates were incubated either for 45 min in a water bath at 37 °C or on ice at 4 °C. The cells were then washed three times with 1 ml ice-cold PBS and incubated with 0.5 ml glycine (50 mM in HCl, pH 2.8) for 5 min. After an additional washing step with 1 ml ice-cold PBS, the cells were lysed with 0.5 ml 0.3 M NaOH and collected, and the radioactivity was measured with a gamma counter for 1 min. The specific cellular uptake was determined as the percentage of initially added radioactivity bound per 10^6 cells (%IA/10^6 cells) by subtraction of the respective uptake under blocking conditions. All experiments were performed in triplicate.

C4-2 tumour-bearing mice = experiment: Biodistribution (organ distribution) in tumour-bearing mice; type: in vivo; details: 0.025 nmol i.v., C4-2 tumour-bearing mice, n = 3
Description: The in vivo experiments were carried out in accordance with the laws on animal welfare of the Federal Republic of Germany. For imaging and biodistribution studies, male BALB/c nu/nu mice (20–25 g; Charles River) bearing C4-2 tumour xenografts were used. The mice were inoculated subcutaneously in the right trunk with 5 × 10^6 C4-2 cells in 50% Matrigel in Opti-MEM (1×). For small-animal imaging the mice were anaesthetized with 2% sevoflurane, and then 0.1 nmol (1.0 MBq) of the respective ^203Pb ligand was injected into a tail vein. Serial planar scans were performed using a Gamma Imager-sct (Biospace Lab, Paris, France) with a parallel collimator (35 mm/1.8 mm/0.2 mm) after 10 min, 1 h, 4 h and 24 h. Based on the imaging results, compound CA012 was chosen for biodistribution studies. Experiments were performed in triplicate. For biodistribution, 0.025 nmol (1 MBq) of labelled compound per mouse was administered by injection into a tail vein. After 10 min, 1 h, 4 h and 24 h the mice were killed, the organs were dissected and weighed, and activity was measured using a gamma counter (Packard Cobra Auto-gamma). The organ uptakes were calculated as the percentage of the injected dose per gram of tissue (%ID/g).

[1] = test system: patients with castration-resistant metastasized prostate cancer; experiment: ^203Pb-CA012 dosimetry from planar whole-body scans in patients (QDOSE/OLINDA); type: in vivo, human; details: diagnostic ^203Pb, two patients, male adult phantom in OLINDA
Description: OLINDA calculations were performed for all nuclides individually.

## NC(=O)CN1CCN(CC(N)=O)CCN(CC(=O)NCC2CCC(C(=O)NC(Cc3ccc4ccccc4c3)C(=O)NCCCC[C@H](NC(=O)N[C@@H](CCC(=O)O)C(=O)O)C(=O)O)CC2)CCN(CC(N)=O)CC1.[203Pb+2] (stereo partly shown) [^203Pb-CA012]
C4-2 cells
  specific ligand-induced internalization: ~16 %IA/10^6 cells
C4-2 cells; ^203Pb-labelled compound 30 nM, 45 min, 2-PMPA blocking subtracted, mean ± SD n = 3
  Specific lysate (specific internalization): 15.6 ± 2.1 %IA/10^6 cells
C4-2 tumour-bearing mice; 10 min
  Organ distribution, Blood: 5.37 ± 1.95 % ID/g
  Organ distribution, Brain: 0.14 ± 0.04 % ID/g
  Organ distribution, Heart: 1.78 ± 0.66 % ID/g
  Organ distribution, Kidneys: 26.97 ± 8.74 % ID/g
  Organ distribution, Liver: 1.25 ± 0.43 % ID/g
  Organ distribution, Lung: 4.31 ± 1.19 % ID/g
  Organ distribution, Muscle: 1.20 ± 0.43 % ID/g
  Organ distribution, Small intestine: 1.75 ± 0.48 % ID/g
  Organ distribution, Spleen: 1.97 ± 1.07 % ID/g
  Organ distribution, Tumor: 12.33 ± 1.92 % ID/g
C4-2 tumour-bearing mice; 1 h
  Organ distribution, Blood: 0.26 ± 0.10 % ID/g
  Organ distribution, Brain: 0.02 ± 0.00 % ID/g
  Organ distribution, Heart: 0.10 ± 0.03 % ID/g
  Organ distribution, Kidneys: 5.08 ± 2.45 % ID/g
  Organ distribution, Liver: 0.20 ± 0.10 % ID/g
  Organ distribution, Lung: 0.33 ± 0.13 % ID/g
  Organ distribution, Muscle: 0.05 ± 0.03 % ID/g
  Organ distribution, Small intestine: 0.10 ± 0.04 % ID/g
  Organ distribution, Spleen: 0.16 ± 0.08 % ID/g
C4-2 tumour-bearing mice; 1 h, listed as 203Pb-PSMA-CA012
  Organ distribution, Tumor: 8.4 ± 3.7 % ID/g and 8.37 ± 3.67 % ID/g
C4-2 tumour-bearing mice; 4 h
  Organ distribution, Blood: 0.05 ± 0.01 % ID/g
  Organ distribution, Brain: 0.02 ± 0.01 % ID/g
  Organ distribution, Heart: 0.04 ± 0.02 % ID/g
  Organ distribution, Kidneys: 1.61 ± 0.28 % ID/g
  Organ distribution, Liver: 0.09 ± 0.01 % ID/g
  Organ distribution, Lung: 0.10 ±0.03 % ID/g
  Organ distribution, Muscle: 0.06 ± 0.03 % ID/g
  Organ distribution, Small intestine: 0.07 ± 0.05 % ID/g
  Organ distribution, Spleen: 0.07 ± 0.01 % ID/g
  Organ distribution, Tumor: 7.81 ±0.86 % ID/g
C4-2 tumour-bearing mice; 24 h
  Organ distribution, Blood: 0.03 ± 0.00 % ID/g
  Organ distribution, Brain: 0.01 ± 0.00 % ID/g
  Organ distribution, Heart: 0.02 ± 0.00 % ID/g
  Organ distribution, Kidneys: 0.89 ± 0.14 % ID/g
  Organ distribution, Liver: 0.10 ± 0.02 % ID/g
  Organ distribution, Lung: 0.05 ± 0.01 % ID/g
  Organ distribution, Muscle: 0.02 ± 0.00 % ID/g
  Organ distribution, Small intestine: 0.02 ± 0.00 % ID/g
  Organ distribution, Spleen: 0.07 ± 0.02 % ID/g
  Organ distribution, Tumor: 3.30 ± 1.60 % ID/g
[1]
  Effective dose: 2.4 mSv/100 MBq
  Effective dose equivalent: 3.6 mSv/100 MBq
  Equivalent dose, Adrenals: 2.8 mSv/100 MBq
  Equivalent dose, Brain: 1.2 mSv/100 MBq
  Equivalent dose, Breasts: 1.1 mSv/100 MBq
  Equivalent dose, Gallbladder: 2.8 mSv/100 MBq
  Equivalent dose, Heart: 1.8 mSv/100 MBq
  Equivalent dose, Kidneys: 18.1 mSv/100 MBq
  Equivalent dose, Liver: 4.3 mSv/100 MBq
  Equivalent dose, Lower large intestine: 2.0 mSv/100 MBq
  Equivalent dose, Lungs: 1.6 mSv/100 MBq
  Equivalent dose, Muscle: 1.5 mSv/100 MBq
  Equivalent dose, Osteogenic cells: 3.7 mSv/100 MBq
  Equivalent dose, Pancreas: 2.8 mSv/100 MBq
  Equivalent dose, Red marrow: 1.8 mSv/100 MBq
  Equivalent dose, Skin: 1.0 mSv/100 MBq
  Equivalent dose, Small intestine: 2.1 mSv/100 MBq
  Equivalent dose, Spleen: 6.7 mSv/100 MBq
  Equivalent dose, Stomach: 2.0 mSv/100 MBq
  Equivalent dose, Testes: 1.4 mSv/100 MBq
  Equivalent dose, Thymus: 1.4 mSv/100 MBq
  Equivalent dose, Thyroid: 1.4 mSv/100 MBq
  Equivalent dose, Total body: 1.7 mSv/100 MBq
  Equivalent dose, Upper large intestine: 2.1 mSv/100 MBq
  Equivalent dose, Urinary bladder: 6.7 mSv/100 MBq
